According to US20220144812A1, “QUINOLINE DERIVATIVES AND THEIR USE FOR THE TREATMENT OF CANCER” (Epizyme, Inc., priority 2019, published 2022):
pIC50: −log10 of the molar value.

Legend:
CREBBP (1084-1701) = molecular target: T1, CREBBP (1084-1701) (Homo sapiens, UniProt Q92793); assay: Biochemical assay for CREBBP (1084-1701), SAMDI; conditions: SAMDI, read-out: CREBBP Biochemistry IC50
T1 construct: measured in the following biochemical assay using CREBBP (1084-1701); purchased
Outline: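 Acetyltransferase activity measured by SAMDI mass spectrometry after capture on biochip. Enzyme sat with compound 30 min at RT before acetyl-CoA and biotinylated H3 11-25 (K14R, K23R) peptide were added for 30 min at RT. Formic acid quench, bicarbonate neutralisation; IC50 values reported.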

EP300 (P300(1048-1664)) = molecular target: T2, EP300 (P300(1048-1664)) (Homo sapiens, UniProt Q09472); assay: Biochemical assay for EP300, SAMDI; conditions: EP300, SAMDI; read-out: EP300 Biochemistry IC50
T2 construct: P300(1048-1664)
T2 sequence (Q09472 1048-1664): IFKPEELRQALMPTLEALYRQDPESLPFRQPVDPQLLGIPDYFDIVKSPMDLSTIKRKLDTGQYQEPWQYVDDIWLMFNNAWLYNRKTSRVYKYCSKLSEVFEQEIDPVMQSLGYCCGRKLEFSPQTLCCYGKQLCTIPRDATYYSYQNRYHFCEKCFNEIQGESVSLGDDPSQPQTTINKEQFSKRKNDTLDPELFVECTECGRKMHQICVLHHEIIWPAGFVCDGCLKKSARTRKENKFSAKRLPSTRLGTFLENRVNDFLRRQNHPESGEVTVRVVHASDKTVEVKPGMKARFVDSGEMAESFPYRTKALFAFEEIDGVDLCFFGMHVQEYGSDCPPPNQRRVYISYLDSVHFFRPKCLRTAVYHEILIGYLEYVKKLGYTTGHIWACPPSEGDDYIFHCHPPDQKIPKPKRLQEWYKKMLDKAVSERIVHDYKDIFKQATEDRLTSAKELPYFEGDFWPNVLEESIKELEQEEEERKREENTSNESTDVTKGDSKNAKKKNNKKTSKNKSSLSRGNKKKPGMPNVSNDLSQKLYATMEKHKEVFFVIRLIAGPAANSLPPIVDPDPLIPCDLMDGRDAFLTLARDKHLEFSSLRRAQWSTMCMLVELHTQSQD
Description: The following example describes materials and methods relating to a biochemical assay for EP300. IC50 values (micromolar (μM)) are summarized in Table 1, Table 2, and Table 3 under the column labeled: “EP300 Biochemistry IC50 (micromolar).”

647V cells = assay: High throughput proliferation (HTP) assay; type: cell-based; conditions: Homo sapiens, 647-V, high throughput proliferation; read-out: CREBBP HTP IC50
Outline: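 Proliferation IC50 (micromolar) derived from a 7-day CellTiter-Glo viable-cell readout in 647V cells exposed, in triplicate, to rising compound concentrations; cells grown in DMEM plus 15% heat-inactivated FBS at 37° C under 5% CO2.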

[1] = system: H3K18Ac in HB-CLS-2 cells; assay: H3K18AC in-cell western (ICW) assay; type: cell-based; conditions: H3K18Ac in-cell western; read-out: CREBBP ICW IC50
Outline: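 In-cell western: after methanol fixation, blocking, overnight 4° C anti-H3K18Ac staining, then 800CW secondary plus DRAQ5 for DNA content, integrated intensities were scanned at 800 and 700 nm. Before this, compound exposure lasted 2 hr at 37° C in HB-CLS-2 cells plated 16–24 hours earlier. Values expressed as IC50 (μM).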

T1 sequence (Q92793 1084-1701): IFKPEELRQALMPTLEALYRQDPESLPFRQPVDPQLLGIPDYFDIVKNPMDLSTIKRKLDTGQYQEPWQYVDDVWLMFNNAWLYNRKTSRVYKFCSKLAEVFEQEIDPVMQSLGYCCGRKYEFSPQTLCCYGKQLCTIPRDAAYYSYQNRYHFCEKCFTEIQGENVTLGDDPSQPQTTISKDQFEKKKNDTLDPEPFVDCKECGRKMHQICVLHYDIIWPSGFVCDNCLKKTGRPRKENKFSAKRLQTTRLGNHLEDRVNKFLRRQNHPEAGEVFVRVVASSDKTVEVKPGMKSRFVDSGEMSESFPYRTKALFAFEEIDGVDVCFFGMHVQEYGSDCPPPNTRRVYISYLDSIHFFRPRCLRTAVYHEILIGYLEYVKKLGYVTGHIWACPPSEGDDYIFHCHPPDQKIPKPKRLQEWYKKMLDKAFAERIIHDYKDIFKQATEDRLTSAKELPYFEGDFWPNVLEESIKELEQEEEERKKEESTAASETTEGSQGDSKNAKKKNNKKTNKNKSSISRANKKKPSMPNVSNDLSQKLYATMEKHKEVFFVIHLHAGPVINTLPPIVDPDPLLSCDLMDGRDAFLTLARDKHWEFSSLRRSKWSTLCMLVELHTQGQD

pIC50 (CREBBP (1084-1701))	pIC50 (EP300 (P300(1048-1664)))	pIC50 [1]	Structure (SMILES)	pIC50 (647V cells)
7.59	8.03	7.18	CCn1ncc(CN(C)C(=O)c2cc(-c3cc(C4=NCCN4)n(C)n3)nc3ccc(Cl)cc23)c1C [Compound 582]	6.91
7.47	7.85	7.53	CCc1ncc(CN(C)C(=O)c2nc(-c3cc(C)nc(NCCN(C)C)c3)nc3ccc(Cl)cc23)n1C [Compound 583]	7.97
7.35	6.66	6.56	CCn1ncc(CN(C)C(=O)c2cc(-c3ccc(NCCNC)c(OC)c3)nc3ccc(Cl)cc23)c1C [Compound 584]	6.78
6.98	6.04	6.48	CCn1ncc(CN(C)C(=O)c2cc(-c3ccc(NCCN(C)C)c(OC)c3)nc3ccc(Cl)cc23)c1C [Compound 585]	6.75
4.71	4.63	5.14	CCc1nn(C)c(CN(C)C(=O)c2cc(-c3ccc(NCCNC)c(C)n3)nc3ccc(Cl)cc23)c1C [Compound 586]	5.67
4.85	4.76	5.10	CCc1nn(C)c(CN(C)C(=O)c2cc(-c3ccc(NCCN(C)C)c(C)n3)nc3ccc(Cl)cc23)c1C [Compound 587]	5.79
7.54	8.05	7.14	CCc1ncc(CN(C)C(=O)c2cc(-c3ccc(NCC(O)CN(C)C)c(C)n3)nc3ccc(Cl)cc23)n1C (stereo not drawn) [Compound 588]	7.56
6.47	6.13	6.40	CCc1cc(CN(C)C(=O)c2cc(-c3ccc(NCCN(C)C)c(C)n3)nc3ccc(Cl)cc23)on1 [Compound 590]	6.41
7.45	7.96	5.35	CCn1ncc(CN(C)C(=O)c2cc(-c3ccc(NCC(CN(C)C)OC)c(C)n3)nc3ccc(Cl)cc23)c1C (stereo not drawn) [Compound 592]	5.14
7.27	6.76	6.77	CCc1nc(-c2cc(C(=O)N(C)Cc3onc(CC)c3C)c3cc(COC)ccc3n2)ccc1NCCN(C)C [Compound 593]	6.99
7.29	7.22	6.84	CCc1nc(-c2cc(C(=O)N(C)Cc3cnn(CC)c3C)c3cc(COC)ccc3n2)ccc1NCCNC [Compound 595]	7.00
7.44	7.55	7.14	Cc1nc(-c2cc(C(=O)N(C)Cc3cnn(CC(F)(F)F)c3C)c3cc(Cl)ccc3n2)ccc1NCCN(C)C [Compound 597]	7.10
6.98	6.55	6.50	Cc1nc(-c2cc(C(=O)N(C)Cc3cnc(C(F)(F)F)n3C)c3cc(Cl)ccc3n2)ccc1NCCN(C)C [Compound 598]	6.55
6.29	5.76	5.80	CNCCNc1ccc(-c2cc(C(=O)N(C)Cc3onc(C4CC4)c3C)c3cc(Cl)ccc3n2)nc1C [Compound 599]	5.90
7.35	7.52	6.85	CCn1ncc(CN(C)C(=O)c2cc(-c3ccc(NC4CN(CC#N)C4)c(C)n3)nc3ccc(Cl)cc23)c1C [Compound 601]	7.14
7.31	7.69	6.76	CCn1ncc(CN(C)C(=O)c2cc(-c3ccc(NC4CN(CC(F)(F)F)C4)c(C)n3)nc3ccc(Cl)cc23)c1C [Compound 603]	6.60
7.55	7.94	7.19	CCn1ncc(CN(C)C(=O)c2cc(-c3ccc(NCC(O)CN(C)C)c(C)n3)nc3ccc(Cl)cc23)c1C (stereo not drawn) [Compound 604]	7.55
6.27	5.51	6.03	CCc1ncc(CN(C)C(=O)c2nc(-c3ccc(NCCN(C)C)nc3C)nc3ccc(Cl)cc23)n1C [Compound 605]	6.35

pIC50 (CREBBP (1084-1701))	pIC50 (EP300 (P300(1048-1664)))	pIC50 [1]	Structure (SMILES)	pIC50 (647V cells)
7.52	7.85	6.53	CCc1noc(C(C)N(C)C(=O)c2nc(-c3ccc(NCCN(C)C)c(C)c3)nc3ccc(Cl)cc23)c1C (stereo not drawn) [Compound 606]	7.09
5.19	5.47	5.49	CCn1ncc([C@H](C)N(C)C(=O)c2cc(-c3ccc(NCCNC)c(C)n3)nc3ccc(Cl)cc23)c1C [Compound 607]	5.71
7.03	7.58	6.97	CCn1ncc([C@@H](C)N(C)C(=O)c2cc(-c3ccc(NCCNC)c(C)n3)nc3ccc(Cl)cc23)c1C [Compound 608]	7.41
7.22	7.68	7.07	CCn1ncc([C@@H](C)N(C)C(=O)c2cc(-c3ccc(NCCN(C)C)c(C)n3)nc3ccc(Cl)cc23)c1C [Compound 610]	7.42
7.13	6.31	6.46	CCn1ncc(CN(C)C(=O)c2nc(-c3cc(C)nc(NCCOC)c3)nc3ccc(Cl)cc23)c1C [Compound 611]	6.51
7.74	8.18	7.33	CCn1ncc(CN(C)C(=O)c2nc(-c3cc4c(NC)[nH]nc4cc3C)nc3ccc(C)cc23)c1C [Compound 612]	7.39
7.72	7.95	7.27	CCc1noc(CN(C)C(=O)c2cc(-c3ccc(NC4CN(C)C4)c(C)n3)nc3ccc(Cl)cc23)c1C [Compound 613]	7.29
7.64	8.06	7.49	CCn1ncc(CN(C)C(=O)c2nc(-c3cc4c(NC)[nH]nc4cc3C)nc3ccc(C4CC4)cc23)c1C [Compound 614]	7.46
8.01	8.51	7.54	CCc1noc(CN(C)C(=O)c2nc(-c3cc4c(NC)[nH]nc4cc3C)nc3ccc(Cl)cc23)c1C [Compound 615]	7.71
7.60	7.84	6.99	CNc1[nH]nc2ccc(-c3nc(C(=O)N(C)Cc4cnc(C5CC5)n4C)c4cc(COC)ccc4n3)cc12 [Compound 616]	6.80
7.39	7.88	7.06	CNc1[nH]nc2cc(C)c(-c3nc(C(=O)N(C)Cc4cnc(C5CC5)n4C)c4cc(COC)ccc4n3)cc12 [Compound 617]	7.08
7.27	6.55	6.61	CCn1ncc(CN(C)C(=O)c2nc(-c3cc(C(F)(F)F)c4[nH]nc(N)c4c3)nc3ccc(Cl)cc23)c1C [Compound 618]	6.15
7.62	7.84	7.22	CCn1ncc(CN(C)C(=O)c2cc(-c3ccc(NCCN(C)C)c(C(F)(F)F)n3)nc3ccc(Cl)cc23)c1C [Compound 619]	7.49
7.60	7.91	7.17	CNc1[nH]nc2cc(C)c(-c3nc(C(=O)N(C)Cc4cnn(CC(F)(F)F)c4C)c4cc(Cl)ccc4n3)cc12 [Compound 620]	7.11
6.67	6.40	6.65	CCn1ncc(CN(C)C(=O)c2nc(-c3cnc4n[nH]c(N)c4c3)nc3ccc(Cl)cc23)c1C [Compound 621]	6.41
6.97	6.42	5.88	CCc1noc(C(C)N(C)C(=O)c2nc(-c3cc4c(NC)[nH]nc4cc3C)nc3ccc(Cl)cc23)c1C (stereo not drawn) [Compound 622]	5.64
7.36	7.55	6.64	CCn1ncc(CN(C)C(=O)c2nc(-c3cc(C(F)(F)F)c4[nH]nc(NC)c4c3)nc3ccc(Cl)cc23)c1C [Compound 623]	6.15
7.74	8.04	6.95	CCn1ncc(CN(C)C(=O)c2nc(-c3cc4c(NC)noc4cc3C)nc3ccc(Cl)cc23)c1C [Compound 624]	6.55
